Numbered stars: 1 amine (or outer) side, 2 acyl side, 3 side chain; on linkers, the order of the positions; unused ones are H or OH. Side chains are listed from the residue outwards. Ends that are not written are not given here. Peptide text beside a SMILES is read from it. * marks the point of attachment. Arachidoyl = CCCCCCCCCCCCCCCCCCCC(=O)*; γGlu = O=C(O)[C@H](CCC(=O)[*:2])N[*:1]; Lauroyl = CCCCCCCCCCCC(=O)*; Octanoyl = CCCCCCCC(=O)*; Propionyl = CCC(=O)*
Assays:
Format in all cases: cell-based
[1] = target: T1, hY1R (Homo sapiens, UniProt P25929); test: Inositol phosphate accumulation assay, hY1R; details: for Emax: read-out: hY1R Emax
T1 sequence (P25929 1-384): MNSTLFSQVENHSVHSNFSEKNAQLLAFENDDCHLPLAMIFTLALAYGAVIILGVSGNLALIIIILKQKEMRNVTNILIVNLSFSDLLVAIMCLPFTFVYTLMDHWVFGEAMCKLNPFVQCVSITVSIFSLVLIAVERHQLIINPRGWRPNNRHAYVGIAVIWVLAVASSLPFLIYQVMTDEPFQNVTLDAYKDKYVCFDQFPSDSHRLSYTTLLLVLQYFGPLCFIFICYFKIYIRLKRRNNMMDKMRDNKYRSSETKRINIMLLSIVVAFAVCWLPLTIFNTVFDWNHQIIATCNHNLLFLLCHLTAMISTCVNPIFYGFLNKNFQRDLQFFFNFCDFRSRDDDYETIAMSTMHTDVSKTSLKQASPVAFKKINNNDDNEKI

[2] = target: T2, hY2R (Homo sapiens, UniProt P49146); test: Inositol phosphate accumulation assay, hY2R; details: for Emax: read-out: hY2R Emax
T2 sequence (P49146 1-381): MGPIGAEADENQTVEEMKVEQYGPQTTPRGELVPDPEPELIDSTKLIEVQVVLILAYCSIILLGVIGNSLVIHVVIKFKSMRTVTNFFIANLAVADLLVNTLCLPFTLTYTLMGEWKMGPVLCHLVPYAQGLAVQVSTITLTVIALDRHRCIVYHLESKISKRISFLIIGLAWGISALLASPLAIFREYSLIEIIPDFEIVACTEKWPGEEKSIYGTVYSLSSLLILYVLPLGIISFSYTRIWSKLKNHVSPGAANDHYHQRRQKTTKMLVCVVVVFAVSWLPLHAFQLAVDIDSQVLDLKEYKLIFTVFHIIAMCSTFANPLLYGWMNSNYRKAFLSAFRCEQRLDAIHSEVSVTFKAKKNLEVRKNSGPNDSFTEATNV

[3] = target: T3, hY5R (Homo sapiens, UniProt Q15761); test: Inositol phosphate accumulation assay, hY5R; details: for Emax: read-out: hY5R Emax
T3 sequence (Q15761 1-445): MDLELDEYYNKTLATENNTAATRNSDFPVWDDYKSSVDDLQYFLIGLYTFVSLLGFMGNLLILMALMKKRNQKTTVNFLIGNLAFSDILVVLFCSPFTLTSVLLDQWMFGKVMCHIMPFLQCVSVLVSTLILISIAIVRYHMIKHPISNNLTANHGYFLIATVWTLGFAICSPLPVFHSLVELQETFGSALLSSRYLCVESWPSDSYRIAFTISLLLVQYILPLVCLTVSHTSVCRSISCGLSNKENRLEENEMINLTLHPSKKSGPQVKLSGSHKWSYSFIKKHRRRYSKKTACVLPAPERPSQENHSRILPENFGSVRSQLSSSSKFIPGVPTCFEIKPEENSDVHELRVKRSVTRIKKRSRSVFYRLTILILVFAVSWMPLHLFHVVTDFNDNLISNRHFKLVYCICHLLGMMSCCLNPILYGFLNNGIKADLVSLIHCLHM

[4] = target: hY4R (Homo sapiens, UniProt P50391); test: Inositol phosphate accumulation assay, hY4R; details: for Emax: read-out: hY4R Emax
Sequence of hY4R (P50391 whole entry): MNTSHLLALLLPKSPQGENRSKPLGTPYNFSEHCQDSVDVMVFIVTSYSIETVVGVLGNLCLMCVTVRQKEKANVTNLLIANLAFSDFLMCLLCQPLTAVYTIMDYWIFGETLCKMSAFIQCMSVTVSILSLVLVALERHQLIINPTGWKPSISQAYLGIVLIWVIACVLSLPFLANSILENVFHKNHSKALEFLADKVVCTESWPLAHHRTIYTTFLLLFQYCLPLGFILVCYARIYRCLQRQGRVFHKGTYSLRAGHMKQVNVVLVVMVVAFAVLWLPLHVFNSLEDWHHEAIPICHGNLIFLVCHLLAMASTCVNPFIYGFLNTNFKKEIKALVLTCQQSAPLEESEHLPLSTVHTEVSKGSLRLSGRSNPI

| Compound | Emax [1] [%] | Emax [2] [%] | Emax [3] [%] | EC50 [1] [nM] | EC50 [2] [nM] | EC50 [4] [nM] | Emax [4] [%] | EC50 [3] [nM] |
| --- | --- | --- | --- | --- | --- | --- | --- | --- |
| CC[C@H](C)[C@H](NC(=O)[C@H](Cc1ccc(O)cc1)NC(=O)[C@H](CCCNC(=N)N)NC(=O)[C@H](CCCNC(=N)N)NC(=O)[C@H](CC(C)C)NC(=O)[C@H](CC(=O)O)NC(=O)[C@H](C)NC(=O)[C@H](C)NC(=O)[C@H](Cc1ccc(O)cc1)NC(=O)[C@H](CCC(N)=O)NC(=O)[C@H](C)NC(=O)[C@H](CCSC)NC(=O)[C@H](CCC(N)=O)NC(=O)[C@H](CCC(=O)O)NC(=O)[C@@H]1CCCN1C(=O)[C@@H](NC(=O)[C@H](C)NC(=O)[C@H](CC(N)=O)NC(=O)[C@H](CC(=O)O)NC(=O)CNC(=O)[C@@H]1CCCN1C(=O)[C@H](Cc1ccc(O)cc1)NC(=O)[C@@H](NC(=O)[C@@H]1CCCN1C(=O)[C@H](CCC(=O)O)NC(=O)[C@H](CC(C)C)NC(=O)[C@@H]1CCCN1C(=O)[C@H](C)N)C(C)C)[C@@H](C)O)C(=O)N[C@@H](CC(N)=O)C(=O)N[C@@H](CCSC)C(=O)N[C@@H](CC(C)C)C(=O)N[C@H](C(=O)N[C@@H](CCCNC(=N)N)C(=O)N1CCC[C@H]1C(=O)N[C@@H](CCCNC(=N)N)C(=O)N[C@@H](Cc1ccc(O)cc1)C(N)=O)[C@@H](C)O [1a, hPP, reference compound] | 95 ± 3 | 96 ± 5 | 90 ± 5 | – | – | – | – | – |
| CCCCCCCC(=O)N[C@@H](CCC(=O)NCCCC[C@H](NC(=O)[C@H](C)NC(=O)[C@H](Cc1ccc(O)cc1)NC(=O)[C@H](CCC(N)=O)NC(=O)[C@H](C)NC(=O)[C@H](CCSC)NC(=O)[C@H](CCC(N)=O)NC(=O)[C@H](CCC(=O)O)NC(=O)[C@@H]1CCCN1C(=O)[C@@H](NC(=O)[C@H](C)NC(=O)[C@H](CC(N)=O)NC(=O)[C@H](CC(=O)O)NC(=O)CNC(=O)[C@@H]1CCCN1C(=O)[C@H](Cc1ccc(O)cc1)NC(=O)[C@@H](NC(=O)[C@@H]1CCCN1C(=O)[C@H](CCC(=O)O)NC(=O)[C@H](CC(C)C)NC(=O)[C@@H]1CCCN1)C(C)C)[C@@H](C)O)C(=O)N[C@@H](CC(=O)O)C(=O)N[C@@H](CC(C)C)C(=O)N[C@@H](CCCNC(=N)N)C(=O)N[C@@H](CCCNC(=N)N)C(=O)N[C@@H](Cc1ccc(O)cc1)C(=O)N[C@H](C(=O)N[C@@H](CC(N)=O)C(=O)N[C@@H](CCSC)C(=O)N[C@@H](CC(C)C)C(=O)N[C@H](C(=O)N[C@@H](CCCNC(=N)N)C(=O)N1CCC[C@H]1C(=O)N[C@@H](CCCNC(=N)N)C(=O)N[C@@H](Cc1ccc(O)cc1)C(N)=O)[C@@H](C)O)[C@@H](C)CC)C(=O)O [compound 10, [K^22(E-Capr)]hPP2–36] (H-PLEPVYPGDNATPEQMAQYAK([γGlu-Octanoyl])DLRRYINMLTRPRY-NH2) | 84 ± 4 | 88 ± 7 | 84 ± 4 | > 1000 | > 1000 | 3.1 | 91 ± 4 | 26 |
| CCCCCCCCCCCCCCCCCCCC(=O)N[C@@H](CCC(=O)NCCCC[C@H](NC(=O)[C@H](CC(N)=O)NC(=O)[C@@H](NC(=O)[C@H](Cc1ccc(O)cc1)NC(=O)[C@H](CCCNC(=N)N)NC(=O)[C@H](CCCNC(=N)N)NC(=O)[C@H](CC(C)C)NC(=O)[C@H](CC(=O)O)NC(=O)[C@H](C)NC(=O)[C@H](C)NC(=O)[C@H](Cc1ccc(O)cc1)NC(=O)[C@H](CCC(N)=O)NC(=O)[C@H](C)NC(=O)[C@H](CCSC)NC(=O)[C@H](CCC(N)=O)NC(=O)[C@H](CCC(=O)O)NC(=O)[C@@H]1CCCN1C(=O)[C@@H](NC(=O)[C@H](C)NC(=O)[C@H](CC(N)=O)NC(=O)[C@H](CC(=O)O)NC(=O)CNC(=O)[C@@H]1CCCN1C(=O)[C@H](Cc1ccc(O)cc1)NC(=O)[C@@H](NC(=O)[C@@H]1CCCN1C(=O)[C@H](CCC(=O)O)NC(=O)[C@H](CC(C)C)NC(=O)[C@@H]1CCCN1)C(C)C)[C@@H](C)O)[C@@H](C)CC)C(=O)N[C@@H](CC(C)C)C(=O)N[C@H](C(=O)N[C@@H](CCCNC(=N)N)C(=O)N1CCC[C@H]1C(=O)N[C@@H](CCCNC(=N)N)C(=O)N[C@@H](Cc1ccc(O)cc1)C(N)=O)[C@@H](C)O)C(=O)O [compound 19, [K^30(E-Ara)]hPP2–36] (H-PLEPVYPGDNATPEQMAQYAADLRRYINK([γGlu-Arachidoyl])LTRPRY-NH2) | 98 ± 4 | 88 ± 5 | 69 ± 10 | 25.1 | 4.9 | 2.5 | 84 ± 7 | 0.6 |
| PLEPVYPGDNATPEQMAQYAADLRRYINKLTRPRY-NH2 [14a, [K^30]hPP2–36] | 93 ± 5 | – | 79 ± 4 | > 1000 | – | 1.4 | 95 ± 4 | 23.9 |
| CCCCCCCCCCCC(=O)N[C@@H](CCC(=O)NCCCC[C@H](NC(=O)[C@H](CC(N)=O)NC(=O)[C@@H](NC(=O)[C@H](Cc1ccc(O)cc1)NC(=O)[C@H](CCCNC(=N)N)NC(=O)[C@H](CCCNC(=N)N)NC(=O)[C@H](CC(C)C)NC(=O)[C@H](CC(=O)O)NC(=O)[C@H](C)NC(=O)[C@H](C)NC(=O)[C@H](Cc1ccc(O)cc1)NC(=O)[C@H](CCC(N)=O)NC(=O)[C@H](C)NC(=O)[C@H](CCSC)NC(=O)[C@H](CCC(N)=O)NC(=O)[C@H](CCC(=O)O)NC(=O)[C@@H]1CCCN1C(=O)[C@@H](NC(=O)[C@H](C)NC(=O)[C@H](CC(N)=O)NC(=O)[C@H](CC(=O)O)NC(=O)CNC(=O)[C@@H]1CCCN1C(=O)[C@H](Cc1ccc(O)cc1)NC(=O)[C@@H](NC(=O)[C@@H]1CCCN1C(=O)[C@H](CCC(=O)O)NC(=O)[C@H](CC(C)C)NC(=O)[C@@H]1CCCN1)C(C)C)[C@@H](C)O)[C@@H](C)CC)C(=O)N[C@@H](CC(C)C)C(=O)N[C@H](C(=O)N[C@@H](CCCNC(=N)N)C(=O)N1CCC[C@H]1C(=O)N[C@@H](CCCNC(=N)N)C(=O)N[C@@H](Cc1ccc(O)cc1)C(N)=O)[C@@H](C)O)C(=O)O [compound 17, [K^30(E-Laur)]hPP2–36] (H-PLEPVYPGDNATPEQMAQYAADLRRYINK([γGlu-Lauroyl])LTRPRY-NH2) | 81 ± 4 | 98 ± 4 | 81 ± 5 | > 1000 | 296 | 3.6 | 83 ± 5 | 38.8 |
| CCC(=O)N[C@@H](CCC(=O)NCCCC[C@H](NC(=O)[C@H](CC(N)=O)NC(=O)[C@@H](NC(=O)[C@H](Cc1ccc(O)cc1)NC(=O)[C@H](CCCNC(=N)N)NC(=O)[C@H](CCCNC(=N)N)NC(=O)[C@H](CC(C)C)NC(=O)[C@H](CC(=O)O)NC(=O)[C@H](C)NC(=O)[C@H](C)NC(=O)[C@H](Cc1ccc(O)cc1)NC(=O)[C@H](CCC(N)=O)NC(=O)[C@H](C)NC(=O)[C@H](CCSC)NC(=O)[C@H](CCC(N)=O)NC(=O)[C@H](CCC(=O)O)NC(=O)[C@@H]1CCCN1C(=O)[C@@H](NC(=O)[C@H](C)NC(=O)[C@H](CC(N)=O)NC(=O)[C@H](CC(=O)O)NC(=O)CNC(=O)[C@@H]1CCCN1C(=O)[C@H](Cc1ccc(O)cc1)NC(=O)[C@@H](NC(=O)[C@@H]1CCCN1C(=O)[C@H](CCC(=O)O)NC(=O)[C@H](CC(C)C)NC(=O)[C@@H]1CCCN1)C(C)C)[C@@H](C)O)[C@@H](C)CC)C(=O)N[C@@H](CC(C)C)C(=O)N[C@H](C(=O)N[C@@H](CCCNC(=N)N)C(=O)N1CCC[C@H]1C(=O)N[C@@H](CCCNC(=N)N)C(=O)N[C@@H](Cc1ccc(O)cc1)C(N)=O)[C@@H](C)O)C(=O)O [15a, [K^30(E-Prop)]hPP2–36] (H-PLEPVYPGDNATPEQMAQYAADLRRYINK([γGlu-Propionyl])LTRPRY-NH2) | 99 ± 4 | 88 ± 6 | 70 ± 3 | > 1000 | > 1000 | 1.3 | 88 ± 4 | 937 |
